Reference: US20260234115A1, “LIPID COMPOUNDS, COMPOSITIONS, AND USES THEREOF” (Liberate Bio, Inc., priority 2023, published 2026)
Marks after values point to notes of the source that are not given here.

How the values were obtained:
[1] = Dynamic light scattering: LNP particle size and PDI; type: physicochemical; conditions: for PDI N/P:6 / Size (nm) N/P:6: LNP
In short: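 The LNPs were made by microfluidic mixing of the lipids in ethanol with mRNA in pH 4.0 citrate, then dialyzed into PBS pH 7.4. They were diluted in PBS pH 7.4, and particle size and PDI were measured by dynamic light scattering.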

[2] = Plate-based fluorescence (RiboGreen) assay: nucleic acid cargo content and encapsulation efficiency of LNPs; type: physicochemical; conditions: for EE (%) N/P:6: LNP
In short: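 LNPs made by microfluidic mixing of ethanolic lipids with mRNA in pH 4.0 citrate, dialyzed into PBS pH 7.4. Cargo quantified by RiboGreen fluorescence against a standard curve: Triton-lysed samples give total, TE-only samples give free cargo; encapsulation efficiency from their ratio.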

mouse organs = test: In vivo activity screening in mice: organ mean total flux (p/s) of luciferase activity after injection of F2 LNP pools (Table 6, FIG. 7A-7C); conditions: luciferase mRNA
In short: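 C57BL/6J mice given one tail-vein injection of pooled Formulation F2 LNPs carrying firefly luciferase mRNA (0.25-3 mg/kg) in PBS. At 4-6 h, s.c. D-luciferin given; organs imaged ex vivo by IVIS within 10-15 min, after saline cardiac perfusion. Mean total flux (p/s) per organ ROI.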

[3] = LNP compositions for Formulation F2 Study
[4] = LNP compositions for in vivo mouse study, four formulations (F1-F4) pooled, or pools of four compounds

With `CCCCC/C=C\CCOC(=O)CCCCC(=O)OCC(COC(=O)CCCCC(=O)OCC/C=C\CCCCC)(COC(=O)CCC(CCCCCC)OC(=O)NCCN1CCCC1)COC(=O)CC12CC3CC(CC(C3)C1)C2` (stereo not drawn) [Compound 14, O6-[2-[[2-(1-adamantyl)acetyl]oxymethyl]-2-[[6-[(Z)-non-3-enoxy]-6-oxo-hexanoyl]oxymethyl]-3-[4-(2-pyrrolidin-1-ylethylcarbamoyloxy)decanoyloxy]propyl]O1-[(Z)-non-3-enyl]hexanedioate] the PDI [1, 3] was 0.178, the “Particle Size (nm)” value [1, 3] was 107.6 nm and the “Particle Size (nm)” value ([1]; LNP compositions for in vivo mouse study, four formulations (F1-F4) of the lipid compound pooled, or pools of four compounds (sixteen compositions)) was 82.9 nm. The PDI [1, 4] was 0.106, the “PDI N/P:6” value ([1]; Formulation F1, N/P 6) was 0.06 and the “Size (nm) N/P:6” value ([1]; Formulation F1, N/P 6) was 78 ± 2 nm. The “PDI N/P:6” value ([1]; Formulation F2, N/P 6) was 0.07, the “Size (nm) N/P:6” value ([1]; Formulation F2, N/P 6) was 90 ± 5 nm and the “PDI N/P:6” value ([1]; Formulation F3, N/P 6) was 0.14. The “Size (nm) N/P:6” value ([1]; Formulation F3, N/P 6) was 83 ± 1 nm, the “PDI N/P:6” value ([1]; Formulation F4, N/P 6) was 0.09 and the “Size (nm) N/P:6” value ([1]; Formulation F4, N/P 6) was 68 ± 3 nm. The EE % [2, 3] was 99%, the EE % [2, 4] was 96% and the “mRNA Content” value [2, 4] was 93 µg/mL. For the same molecule, the “EE (%) N/P:6” value ([2]; Formulation F1, N/P 6) was 99%, the “EE (%) N/P:6” value ([2]; Formulation F2, N/P 6) was 99% and the “EE (%) N/P:6” value ([2]; Formulation F3, N/P 6) was 99%. The “EE (%) N/P:6” value ([2]; Formulation F4, N/P 6) was 98%, the “Organ Mean Total Flux Femur” value (mouse organs; Mouse 1, dose 0.3 mg/kg) was 9.3 p/s (×10^6) and the “Organ Mean Total Flux Heart” value (mouse organs; Mouse 1, dose 0.3 mg/kg) was 1.8 p/s (×10^6). The “Organ Mean Total Flux Kidney” value (mouse organs; Mouse 1, dose 0.3 mg/kg) was 2.8 p/s (×10^6), the “Organ Mean Total Flux Liver” value (mouse organs; Mouse 1, dose 0.3 mg/kg) was 3910 p/s (×10^6) and the “Organ Mean Total Flux Lung” value (mouse organs; Mouse 1, dose 0.3 mg/kg) was 31.9 p/s (×10^6). For the same molecule, the “Organ Mean Total Flux Muscle” value (mouse organs; Mouse 1, dose 0.3 mg/kg) was 9.5 p/s (×10^6), the “Organ Mean Total Flux Pancreas” value (mouse organs; Mouse 1, dose 0.3 mg/kg) was 14.9 p/s (×10^6) and the “Organ Mean Total Flux Spleen” value (mouse organs; Mouse 1, dose 0.3 mg/kg) was 31.5 p/s (×10^6). The “Organ Mean Total Flux Femur” value (mouse organs; Mouse 2, dose 1.0 mg/kg) was 62.6 p/s (×10^6), the “Organ Mean Total Flux Heart” value (mouse organs; Mouse 2, dose 1.0 mg/kg) was 5.9 p/s (×10^6) and the “Organ Mean Total Flux Kidney” value (mouse organs; Mouse 2, dose 1.0 mg/kg) was 7.0 p/s (×10^6). For the same molecule, the “Organ Mean Total Flux Liver” value (mouse organs; Mouse 2, dose 1.0 mg/kg) was 2883 p/s (×10^6), the “Organ Mean Total Flux Lung” value (mouse organs; Mouse 2, dose 1.0 mg/kg) was 96.9 p/s (×10^6) and the “Organ Mean Total Flux Muscle” value (mouse organs; Mouse 2, dose 1.0 mg/kg) was 144.9 p/s (×10^6). The “Organ Mean Total Flux Pancreas” value (mouse organs; Mouse 2, dose 1.0 mg/kg) was 32.1 p/s (×10^6), the “Organ Mean Total Flux Spleen” value (mouse organs; Mouse 2, dose 1.0 mg/kg) was 107.0 p/s (×10^6) and the “Organ Mean Total Flux Femur” value (mouse organs; Mouse 3, dose 1.0 mg/kg) was 41.8 p/s (×10^6). The “Organ Mean Total Flux Heart” value (mouse organs; Mouse 3, dose 1.0 mg/kg) was 8.6 p/s (×10^6), the “Organ Mean Total Flux Kidney” value (mouse organs; Mouse 3, dose 1.0 mg/kg) was 7.7 p/s (×10^6) and the “Organ Mean Total Flux Liver” value (mouse organs; Mouse 3, dose 1.0 mg/kg) was 4307 p/s (×10^6). For the same molecule, the “Organ Mean Total Flux Lung” value (mouse organs; Mouse 3, dose 1.0 mg/kg) was 49.2 p/s (×10^6), the “Organ Mean Total Flux Muscle” value (mouse organs; Mouse 3, dose 1.0 mg/kg) was 193.7 p/s (×10^6) and the “Organ Mean Total Flux Pancreas” value (mouse organs; Mouse 3, dose 1.0 mg/kg) was 23.4 p/s (×10^6). The “Organ Mean Total Flux Spleen” value (mouse organs; Mouse 3, dose 1.0 mg/kg) was 123.8 p/s (×10^6), the “Organ Mean Total Flux Femur” value (mouse organs; Mouse 5, dose 0.5 mg/kg) was 11.9 p/s (×10^6) and the “Organ Mean Total Flux Heart” value (mouse organs; Mouse 5, dose 0.5 mg/kg) was 4.4 p/s (×10^6). For the same molecule, the “Organ Mean Total Flux Kidney” value (mouse organs; Mouse 5, dose 0.5 mg/kg) was 1.8 p/s (×10^6), the “Organ Mean Total Flux Liver” value (mouse organs; Mouse 5, dose 0.5 mg/kg) was 1303 p/s (×10^6) and the “Organ Mean Total Flux Lung” value (mouse organs; Mouse 5, dose 0.5 mg/kg) was 18.9 p/s (×10^6). For the same molecule, the “Organ Mean Total Flux Muscle” value (mouse organs; Mouse 5, dose 0.5 mg/kg) was 34.1 p/s (×10^6), the “Organ Mean Total Flux Pancreas” value (mouse organs; Mouse 5, dose 0.5 mg/kg) was 1.9 p/s (×10^6) and the “Organ Mean Total Flux Spleen” value (mouse organs; Mouse 5, dose 0.5 mg/kg) was 20.8 p/s (×10^6). The “Organ Mean Total Flux Femur” value (mouse organs; Mouse 6, dose 0.5 mg/kg) was 9.1 p/s (×10^6), the “Organ Mean Total Flux Heart” value (mouse organs; Mouse 6, dose 0.5 mg/kg) was 1.6 p/s (×10^6) and the “Organ Mean Total Flux Kidney” value (mouse organs; Mouse 6, dose 0.5 mg/kg) was 3.2 p/s (×10^6). The “Organ Mean Total Flux Liver” value (mouse organs; Mouse 6, dose 0.5 mg/kg) was 676.3 p/s (×10^6), the “Organ Mean Total Flux Lung” value (mouse organs; Mouse 6, dose 0.5 mg/kg) was 17.3 p/s (×10^6) and the “Organ Mean Total Flux Muscle” value (mouse organs; Mouse 6, dose 0.5 mg/kg) was 27.6 p/s (×10^6). For the same molecule, the “Organ Mean Total Flux Pancreas” value (mouse organs; Mouse 6, dose 0.5 mg/kg) was 14.7 p/s (×10^6), the “Organ Mean Total Flux Spleen” value (mouse organs; Mouse 6, dose 0.5 mg/kg) was 28.7 p/s (×10^6) and the “Organ Mean Total Flux Femur” value (mouse organs; Mouse 9, dose 0.5 mg/kg) was 13.3 p/s (×10^6). For the same molecule, the “Organ Mean Total Flux Heart” value (mouse organs; Mouse 9, dose 0.5 mg/kg) was 1.2 p/s (×10^6), the “Organ Mean Total Flux Kidney” value (mouse organs; Mouse 9, dose 0.5 mg/kg) was 2.5 p/s (×10^6) and the “Organ Mean Total Flux Liver” value (mouse organs; Mouse 9, dose 0.5 mg/kg) was 721.0 p/s (×10^6). For the same molecule, the “Organ Mean Total Flux Lung” value (mouse organs; Mouse 9, dose 0.5 mg/kg) was 10.4 p/s (×10^6), the “Organ Mean Total Flux Muscle” value (mouse organs; Mouse 9, dose 0.5 mg/kg) was 31.2 p/s (×10^6) and the “Organ Mean Total Flux Pancreas” value (mouse organs; Mouse 9, dose 0.5 mg/kg) was 10.2 p/s (×10^6). For the same molecule, the “Organ Mean Total Flux Spleen” value (mouse organs; Mouse 9, dose 0.5 mg/kg) was 32.2 p/s (×10^6), the “Organ Mean Total Flux Femur” value (mouse organs; Mouse 11, dose 0.5 mg/kg) was 10.1 p/s (×10^6) and the “Organ Mean Total Flux Heart” value (mouse organs; Mouse 11, dose 0.5 mg/kg) was 1.8 p/s (×10^6). The “Organ Mean Total Flux Kidney” value (mouse organs; Mouse 11, dose 0.5 mg/kg) was 0.9 p/s (×10^6), the “Organ Mean Total Flux Liver” value (mouse organs; Mouse 11, dose 0.5 mg/kg) was 360.7 p/s (×10^6) and the “Organ Mean Total Flux Lung” value (mouse organs; Mouse 11, dose 0.5 mg/kg) was 25.4 p/s (×10^6). For the same molecule, the “Organ Mean Total Flux Muscle” value (mouse organs; Mouse 11, dose 0.5 mg/kg) was 24.2 p/s (×10^6), the “Organ Mean Total Flux Pancreas” value (mouse organs; Mouse 11, dose 0.5 mg/kg) was 4.2 p/s (×10^6) and the “Organ Mean Total Flux Spleen” value (mouse organs; Mouse 11, dose 0.5 mg/kg) was 26.2 p/s (×10^6). The “Organ Mean Total Flux Femur” value (mouse organs; Mouse 12, dose 0.5 mg/kg) was 9.3 p/s (×10^6), the “Organ Mean Total Flux Heart” value (mouse organs; Mouse 12, dose 0.5 mg/kg) was 1.8 p/s (×10^6) and the “Organ Mean Total Flux Kidney” value (mouse organs; Mouse 12, dose 0.5 mg/kg) was 2.2 p/s (×10^6). For the same molecule, the “Organ Mean Total Flux Liver” value (mouse organs; Mouse 12, dose 0.5 mg/kg) was 585.3 p/s (×10^6), the “Organ Mean Total Flux Lung” value (mouse organs; Mouse 12, dose 0.5 mg/kg) was 32.4 p/s (×10^6) and the “Organ Mean Total Flux Muscle” value (mouse organs; Mouse 12, dose 0.5 mg/kg) was 35.5 p/s (×10^6). The “Organ Mean Total Flux Pancreas” value (mouse organs; Mouse 12, dose 0.5 mg/kg) was 3.5 p/s (×10^6), the “Organ Mean Total Flux Spleen” value (mouse organs; Mouse 12, dose 0.5 mg/kg) was 21.1 p/s (×10^6) and the “Organ Mean Total Flux Femur” value (mouse organs; Mouse 13, dose 0.5 mg/kg) was 8.3 p/s (×10^6). For the same molecule, the “Organ Mean Total Flux Heart” value (mouse organs; Mouse 13, dose 0.5 mg/kg) was 1.1 p/s (×10^6), the “Organ Mean Total Flux Kidney” value (mouse organs; Mouse 13, dose 0.5 mg/kg) was 5.7 p/s (×10^6) and the “Organ Mean Total Flux Liver” value (mouse organs; Mouse 13, dose 0.5 mg/kg) was 439.7 p/s (×10^6). For the same molecule, the “Organ Mean Total Flux Lung” value (mouse organs; Mouse 13, dose 0.5 mg/kg) was 16.8 p/s (×10^6), the “Organ Mean Total Flux Muscle” value (mouse organs; Mouse 13, dose 0.5 mg/kg) was 16.7 p/s (×10^6) and the “Organ Mean Total Flux Pancreas” value (mouse organs; Mouse 13, dose 0.5 mg/kg) was 5.3 p/s (×10^6). For the same molecule, the “Organ Mean Total Flux Spleen” value (mouse organs; Mouse 13, dose 0.5 mg/kg) was 19.7 p/s (×10^6), the “Organ Mean Total Flux Femur” value (mouse organs; Mouse 14, dose 0.5 mg/kg) was 10.8 p/s (×10^6) and the “Organ Mean Total Flux Heart” value (mouse organs; Mouse 14, dose 0.5 mg/kg) was 2.0 p/s (×10^6). The “Organ Mean Total Flux Kidney” value (mouse organs; Mouse 14, dose 0.5 mg/kg) was 4.6 p/s (×10^6), the “Organ Mean Total Flux Liver” value (mouse organs; Mouse 14, dose 0.5 mg/kg) was 240.7 p/s (×10^6) and the “Organ Mean Total Flux Lung” value (mouse organs; Mouse 14, dose 0.5 mg/kg) was 12.6 p/s (×10^6). For the same molecule, the “Organ Mean Total Flux Muscle” value (mouse organs; Mouse 14, dose 0.5 mg/kg) was 41.1 p/s (×10^6), the “Organ Mean Total Flux Pancreas” value (mouse organs; Mouse 14, dose 0.5 mg/kg) was 7.6 p/s (×10^6) and the “Organ Mean Total Flux Spleen” value (mouse organs; Mouse 14, dose 0.5 mg/kg) was 24.0 p/s (×10^6).
